Results taken from US20240173283A1, “PROPHYLACTIC AGENT OR THERAPEUTIC AGENT FOR SIDE EFFECTS OF ANTHRACYCLINE ANTICANCER AGENT” (Kyushu University, National University Corporation, priority 2021, published 2024).

Assays:
Primary cardiomyocytes [1] = assay: Cell death evaluation assay (Cell Counting Kit-F) in doxorubicin-treated primary cardiomyocytes; type: cell-based, rat; settings: FIG. 2
Description: (§1) Primary cardiomyocytes were isolated by trypsin and collagenase treatment of the heart harvested from a neonatal rat, and inoculated onto a petri dish. After culture for several days, the culture medium was replaced with a serum-free medium (DMEM), and 2 μM (final concentration) doxorubicin was added from 24 hours later in the serum-free medium. Aminolevulinic acid (5′-ALA, 1 mM) or ferrostatin-1 (Fer-1, 50 μM) was added 1 hour before doxorubicin addition.

[2] = system: mitochondrial iron in rat primary cardiomyocytes; assay: Mito-FerroGreen fluorescent staining of mitochondrial iron in cardiomyocytes; type: cell-based; settings: FIGS. 8A and 8B
Description: 5′-ALA (1 mM) was added to isolated rat primary cardiomyocytes, and doxorubicin (2 M) was added from 1 hour later. The cells were washed once with PBS 24 hours after doxorubicin addition and cultured for 30 minutes in a medium supplemented with Mito-FerroGreen (5 µM) for fluorescent staining of mitochondrial iron. The cells were washed with PBS again and then observed under a fluorescence microscope (BZ-X800, Keyence Corp.) (FIG. 8A). The signal intensity of the obtained image was quantitatively analyzed in image J (NIH).

[3] = system: doxorubicin cardiomyopathy model; assay: Echocardiography in doxorubicin cardiomyopathy model; type: in vivo, mouse; settings: FIG. 3
[4] = system: mitochondrial heme in rat primary cardiomyocytes; assay: Mitochondrial heme (QuantiChrom Heme Assay Kit) in cardiomyocytes; type: cell-based; settings: FIG. 8C
Primary cardiomyocytes [5] = assay: Cell death evaluation assay in primary cardiomyocytes with various anthracycline anticancer agents; type: cell-based, rat; settings: 5′-ALA 1 mM added 2 hours before DOX, DNR, THP, IDR or EPI (1 or 2 μM); 26 hours after addition; FIG. 5
Description: Primary cardiomyocytes were isolated by trypsin and collagenase treatment of the heart harvested from a neonatal rat, and inoculated onto a petri dish. After culture for several days, the culture medium was replaced with a serum-free medium (DMEM), and doxorubicin (DOX; 1 or 2 μM), daunorubicin (DNR; 1 or 2 μM), pirarubicin (THP; 1 or 2 μM), idarubicin (IDR; 1 or 2 μM), or epirubicin (EPI; 1 or 2 μM) was added (final concentrations for all) from 24 hours later in the serum-free medium. Aminolevulinic acid (5′-ALA, 1 mM) was added 2 hours before doxorubicin addition. […] The obtained results were normalized with those of the control group defined as 1, and presented as data.

[6] = system: acrolein in myocardial tissues; assay: Acrolein western blot of myocardial tissues, doxorubicin cardiomyopathy model; settings: day 14, FIG. 4
Text: (§2) The obtained image was quantitatively analyzed in image J (NIH). GAPDH (Santa Cruz Biotechnology Inc., sc-32233) was used as an internal control.

[7] = system: malondialdehyde (MDA) in myocardial tissues; assay: MDA (TBARS assay) in myocardial tissues, doxorubicin cardiomyopathy model; settings: day 14, FIG. 4
[8] = system: iron in myocardial tissues; assay: Mitochondrial total iron (ferrozine method) in mouse heart tissues; settings: day 14, FIG. 9A
[9] = system: mitochondrial heme in myocardial tissues; assay: Mitochondrial heme (QuantiChrom Heme Assay Kit) in mouse heart tissues; settings: day 14, FIG. 9B
[10] = system: EL-4 cells (mouse malignant lymphoma cells); assay: Cell survival evaluation by Trypan Blue staining in EL-4 cells; type: cell-based; settings: 24 hours, FIG. 10A
Description: 5′-ALA (1 mM) was added to EL-4 cells (mouse malignant lymphoma cells), and doxorubicin (1 μM) was added thereto 1 hour later. The cells were collected 24 hours after doxorubicin addition, and dead cells were stained by Trypan Blue staining. The numbers of live cells and dead cells were counted in an automatic cell counter (Countess II FL, Thermo Fisher Scientific Inc.). Cell survival evaluation was conducted from the ratio (%) of the number of live cells to the total number of cells.

Primary cardiomyocytes [11] = assay: Malondialdehyde (MDA) measurement by TBARS assay in doxorubicin-treated primary cardiomyocytes; type: cell-based, rat; settings: FIG. 1
Description: as §1, with “medium, and cardiomyocytes were lysed with a RIPA buffer and collected 24 hours after doxorubicin addition.” for “medium.”, “µM)” for “μM)”

[12] = system: Hela cells (human uterine cervical cancer cells); assay: Cell death evaluation assay (Cell Counting Kit-F) in Hela cells; type: cell-based; settings: 24 hours, FIG. 10B
Description: 5′-ALA (1 mM) was added to Hela cells (human uterine cervical cancer cells), and doxorubicin (2 μM) was added thereto 1 hour later. […] The obtained results were normalized with those of the control group defined as 1, and presented as data.

protoporphyrin IX (PpIX) = assay: Protoporphyrin IX measurement by mass spectrometer in cardiomyocytes; type: cell-based, rat; settings: doxorubicin 2 μM, 24 hours; FIG. 7
Description: After doxorubicin (2 μM, 24 hours) addition to isolated rat primary cardiomyocytes, the cells were collected with PBS. 50% acetic acid and a dimethylformamide (DMF)/2-propanol (IPA) mixed solution were added to the collected sample, and the mixture was vigorously mixed by vortex. After centrifugation, a supernatant was recovered (supernatant 1), and a DMF/IPA mixed solution was added again to pellets, followed by centrifugation again. The supernatant thus obtained by centrifugation (supernatant 2) and the supernatant 1 were combined and used as protoporphyrin IX extracts. Acetonitrile was added to the extracts, and the mixture was deproteinized and then centrifuged at 20000 g for 20 minutes. Then, a supernatant was applied to a mass spectrometer (column: 1.8 UM, 2.1×100 mm; Waters, MA, USA, measurement equipment: Q Exactive Ultimate 3000; Thermo Fisher Scientific Inc.) to measure protoporphyrin IX (PPIX) in the cardiomyocytes.

ALAS1 [13] = assay: Alas1 western blot in mouse heart tissues; type: in vivo; settings: doxorubicin 6 mg/kg/dose, days 0, 2, 4; day 7; GAPDH internal control; FIG. 6B
Text: as §2

ALAS1 [14] = assay: Alas1 western blot in rat primary cardiomyocytes; type: cell-based; settings: doxorubicin 2 μM, 24 hours; β-Actin internal control; FIG. 6A
Text: The obtained image was quantitatively analyzed in image J (NIH). β-Actin (Santa Cruz Biotechnology Inc., sc-47778) was used as an internal control.

[15] = 5′-ALA 1 mM added 1 hour before doxorubicin 2 μM, 24 hours after doxorubicin
[16] = 5′-ALA 300 mg/kg/day in drinking water from 3 days before doxorubicin
[17] = 5′-ALA oral 300 mg/kg/day in drinking water from 3 days before initial doxorubicin
[18] = doxorubicin 6 mg/kg/dose, days 0, 2, 4

NCC(=O)CCC(=O)O [5′-ALA, 5-aminolevulinic acid]
cell death (ferroptosis) of cardiomyocytes (Primary cardiomyocytes [1]; 5′-ALA 1 mM added 1 hour before 2 μM doxorubicin, 24 hours after doxorubicin): suppressed the cell death (ferroptosis) of cardiomyocytes | mitochondrial iron in cardiomyocytes (Mito-FerroGreen signal intensity) [2, 15]: the iron excess state is normalized | left ventricular contractility (left ventricular ejection fraction, LVEF) ([3]; 5′-ALA 300 mg/kg/day in drinking water from 3 days before doxorubicin (6 mg/kg/dose, days 0, 2, 4, tail vein), echocardiography 7 and 14 days): significantly improved reduction in left ventricular contractility | mitochondrial heme in cardiomyocytes [4, 15]: the disorder is normalized | cell death of cardiomyocytes (Primary cardiomyocytes [5]): suppressed the cell death of cardiomyocytes in all the administration groups | lipid peroxide (acrolein) level in myocardial tissues [6, 16]: significantly suppressed increase in lipid peroxide (acrolein and MDA) levels | lipid peroxide (MDA) level in myocardial tissues [7, 16]: significantly suppressed increase in lipid peroxide (acrolein and MDA) levels | total amount of iron in heart mitochondria (myocardial tissues) [8, 17]: the iron excess state is normalized | mitochondrial heme in myocardial tissues [9, 17]: the disorder is normalized | attenuation of cell death-inducing effect of doxorubicin in EL-4 cells ([10]; 5′-ALA 1 mM added 1 hour before doxorubicin 1 μM): the effects were not attenuated | lipid peroxide level (MDA) in cardiomyocytes (Primary cardiomyocytes [11]; 5′-ALA 1 mM added 1 hour before 2 μM doxorubicin, collected 24 hours after doxorubicin): suppressed increase in lipid peroxide level | attenuation of cell death-inducing effect of doxorubicin in Hela cells ([12]; 5′-ALA 1 mM added 1 hour before doxorubicin 2 μM): the effects were not attenuated

CCOC(=O)c1ccc(NC2CCCCC2)c(N)c1 [Fer-1, ferrostatin-1]
cell death (ferroptosis) of cardiomyocytes (Primary cardiomyocytes [1]; Fer-1 50 μM added 1 hour before 2 μM doxorubicin, 24 hours after doxorubicin): equivalent to the effect of Fer-1 | lipid peroxide level (MDA) in cardiomyocytes (Primary cardiomyocytes [11]; Fer-1 50 µM added 1 hour before 2 μM doxorubicin, collected 24 hours after doxorubicin): equivalent to the effect of Fer-1

COc1cccc2c1C(=O)c1c(O)c3c(c(O)c1C2=O)C[C@@](O)(C(=O)CO)C[C@@H]3O[C@H]1C[C@H](N)[C@H](O)[C@H](C)O1 [doxorubicin]
level of protoporphyrin IX (PpIX) in cardiomyocytes (protoporphyrin IX (PpIX)): decreased | cell death (ferroptosis) of cardiomyocytes (Primary cardiomyocytes [1]; doxorubicin 2 μM, 24 hours): cell death (ferroptosis) of cardiomyocytes induced by doxorubicin | level of ALAS1 in myocardial tissues (ALAS1 [13]): decreased | mitochondrial iron in cardiomyocytes (Mito-FerroGreen signal intensity) ([2]; doxorubicin 2 μM, 24 hours): an iron excess state occurs | left ventricular contractility (left ventricular ejection fraction, LVEF) ([3]; doxorubicin 6 mg/kg/dose, days 0, 2, 4, tail vein): reduction in left ventricular contractility | mitochondrial heme in cardiomyocytes ([4]; doxorubicin 2 μM, 24 hours): a heme synthesis disorder is induced | lipid peroxide (acrolein) level in myocardial tissues [6, 18]: increase in lipid peroxide (acrolein and MDA) levels | lipid peroxide (MDA) level in myocardial tissues [7, 18]: increase in lipid peroxide (acrolein and MDA) levels | total amount of iron in heart mitochondria (myocardial tissues) [8, 18]: an iron excess state is induced | mitochondrial heme in myocardial tissues [9, 18]: heme synthesis disorder is induced | cell death-inducing effect in EL-4 cells (ratio of live cells to total cells) ([10]; doxorubicin 1 μM): a cell death-inducing effects, which are the drug efficacy of doxorubicin, were observed | lipid peroxide level (MDA) in cardiomyocytes (Primary cardiomyocytes [11]; doxorubicin 2 μM, 24 hours): increase in lipid peroxide level in cardiomyocytes | level of ALAS1 in cardiomyocytes (ALAS1 [14]): decreased | cell death-inducing effect in Hela cells ([12]; doxorubicin 2 μM): a cell death-inducing effects, which are the drug efficacy of doxorubicin, were observed
